In publication PMC7737618, “Structure and elevator mechanism of the mammalian sodium/proton exchanger NHE9” (The EMBO Journal, 2020):
Blank lines part the entries; values can stand above or below the molecule they belong to.

Experiments:
NHE9* [1] = target: T1, NHE9* (Equus caballus, UniProt F7B113); assay: GFP-based thermal shift (FSEC-TS); assay type: binding; settings: 1% DDM, 1% octyl glucoside, 10 min heating; lipid 1 mg/ml in the screen
T1 construct: gene SLC9A9; residues 8-575 (8-574 elsewhere) of 644, C-terminal tail truncated; GFP-TwinStrep-His8 fusion kept for thermal shift; S. cerevisiae FGY217; purified homodimer
T1 sequence (F7B113 8-575): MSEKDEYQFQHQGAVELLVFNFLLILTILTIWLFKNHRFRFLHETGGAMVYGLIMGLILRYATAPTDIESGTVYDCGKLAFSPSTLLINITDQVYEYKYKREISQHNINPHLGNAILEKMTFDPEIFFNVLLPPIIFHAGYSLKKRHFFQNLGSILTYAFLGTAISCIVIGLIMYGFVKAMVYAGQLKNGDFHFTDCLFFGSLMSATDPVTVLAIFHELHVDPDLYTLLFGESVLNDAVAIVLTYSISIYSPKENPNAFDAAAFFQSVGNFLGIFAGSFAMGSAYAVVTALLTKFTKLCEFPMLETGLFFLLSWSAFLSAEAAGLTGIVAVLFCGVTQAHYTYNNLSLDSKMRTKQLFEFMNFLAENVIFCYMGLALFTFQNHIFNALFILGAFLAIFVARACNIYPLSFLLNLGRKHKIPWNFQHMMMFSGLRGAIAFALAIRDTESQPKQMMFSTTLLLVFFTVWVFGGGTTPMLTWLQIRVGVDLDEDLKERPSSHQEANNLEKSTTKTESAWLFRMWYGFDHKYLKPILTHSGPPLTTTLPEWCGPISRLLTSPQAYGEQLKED
Excerpt: GFP-based thermal shift (FSEC-TS) on NHE9* | In the presence of either PIP2 or PIP3, the average melting temperature (ΔT m)

[2] = target: horse NHE9* (residues 8-575 out of 644), TEV-cleaved (Equus caballus (horse)); assay: native MS; 100 mM ammonium acetate pH 7.0, 0.02% (w/v) DDM; NHE9* purified with or without added brain lipids
NHE9* [3] = target: T2, NHE9* (Equus caballus, UniProt F7B113, K85Q/K105Q/K107Q); assay: GFP-based thermal shift (FSEC-TS); assay type: binding; settings: 1% DDM, 1% octyl glucoside, 10 min heating; lipid 1 mg/ml in the screen; TM2-TM3 loop mutant
T2 construct: gene SLC9A9; residues 8-575 (8-574 elsewhere) of 644, C-terminal tail truncated; GFP-TwinStrep-His8 fusion kept for thermal shift; S. cerevisiae FGY217; purified homodimer
T2 sequence (F7B113 8-575 K85Q/K105Q/K107Q): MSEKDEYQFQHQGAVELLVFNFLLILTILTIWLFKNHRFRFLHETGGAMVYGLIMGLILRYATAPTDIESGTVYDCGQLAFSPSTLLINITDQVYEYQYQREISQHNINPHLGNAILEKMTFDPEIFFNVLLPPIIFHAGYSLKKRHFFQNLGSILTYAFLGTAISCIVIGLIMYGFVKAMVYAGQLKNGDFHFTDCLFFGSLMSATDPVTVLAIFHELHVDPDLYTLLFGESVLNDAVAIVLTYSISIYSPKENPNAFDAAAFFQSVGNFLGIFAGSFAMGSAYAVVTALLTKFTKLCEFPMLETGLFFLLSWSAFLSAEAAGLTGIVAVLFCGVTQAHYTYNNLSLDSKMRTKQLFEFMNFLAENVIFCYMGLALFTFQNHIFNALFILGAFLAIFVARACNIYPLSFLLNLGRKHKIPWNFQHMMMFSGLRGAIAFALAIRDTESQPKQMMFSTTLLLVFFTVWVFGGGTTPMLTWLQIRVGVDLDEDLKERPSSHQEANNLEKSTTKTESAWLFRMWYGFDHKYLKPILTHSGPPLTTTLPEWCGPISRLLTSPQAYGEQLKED

NHE9 ΔCTD = target: T3, NHE9 ΔCTD (Equus caballus, UniProt F7B113); assay: GFP-based thermal shift (FSEC-TS); assay type: binding; settings: 1% DDM, 1% octyl glucoside, 10 min heating; lipid 1 mg/ml in the screen
T3 construct: gene SLC9A9; residues 8-481 of 644, whole C-terminal regulatory domain removed; GFP-TwinStrep-His8 fusion for thermal shift; S. cerevisiae FGY217; purified homodimer
T3 sequence (F7B113 8-481): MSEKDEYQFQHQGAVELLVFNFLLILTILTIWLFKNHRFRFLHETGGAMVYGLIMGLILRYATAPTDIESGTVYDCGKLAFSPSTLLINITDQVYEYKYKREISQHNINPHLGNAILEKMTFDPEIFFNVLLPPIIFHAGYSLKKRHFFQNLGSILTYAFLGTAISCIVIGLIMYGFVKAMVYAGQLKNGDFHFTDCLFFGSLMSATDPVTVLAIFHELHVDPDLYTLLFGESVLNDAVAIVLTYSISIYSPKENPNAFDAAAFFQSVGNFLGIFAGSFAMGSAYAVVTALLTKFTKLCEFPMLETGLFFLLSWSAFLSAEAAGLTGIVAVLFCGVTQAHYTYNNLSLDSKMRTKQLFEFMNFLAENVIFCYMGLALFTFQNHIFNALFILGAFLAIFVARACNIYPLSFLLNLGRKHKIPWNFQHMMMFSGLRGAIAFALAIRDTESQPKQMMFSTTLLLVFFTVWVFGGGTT

[4] = target: the molecule itself; assay: cryo-EM structure; purified protein in LMNG/CHS, 20 mM Tris-HCl pH 7.5, 150 mM NaCl; brain lipids added during purification; no symmetry imposed (C1)

ΔTm (NHE9* [1]): 9 °C
Molecule: CCCCCCCCCCCCCCCC(=O)OC[C@H](COP(=O)(O)O[C@H]1[C@H](O)[C@@H](OP(=O)(O)O)[C@H](OP(=O)(O)O)[C@@H](OP(=O)(O)O)[C@H]1O)OC(=O)CCCCCCCCCCCCCCC [PIP3, phosphatidylinositol tris‐3,4,5‐phosphate,1,2‐dipalmitoyl]

ΔTm (NHE9* [1]): 9 °C
Molecule: CCCCCCCC(=O)OC[C@H](COP(=O)(O)O[C@@H]1[C@H](O)[C@H](O)[C@@H](OP(=O)(O)O)[C@H](OP(=O)(O)O)[C@H]1O)OC(=O)CCCCCCC [PIP2, phosphatidylinositol bis‐4,5‐phosphate,1,2‐dioctanoyl]
ΔTm (NHE9* [3]): a triple lysine‐to‐glutamine loop mutant markedly reduced PIP2‐mediated stabilization
ΔTm (NHE9 ΔCTD): the ΔCTD construct was also analysed, yet additional stabilization upon PIP2 addition was still observed

More lines, now with the values behind:

Molecule: horse NHE9* (residues 8-575 out of 644), TEV-cleaved (domain or fragment)
stoichiometry N [2]: 2

B1: horse NHE9 ΔCTD (residues 8-481 out of 644) (domain or fragment, Equus caballus (horse), UniProt F7B113 8-481, looked up)
chain: MSEKDEYQFQHQGAVELLVFNFLLILTILTIWLFKNHRFRFLHETGGAMVYGLIMGLILRYATAPTDIESGTVYDCGKLAFSPSTLLINITDQVYEYKYKREISQHNINPHLGNAILEKMTFDPEIFFNVLLPPIIFHAGYSLKKRHFFQNLGSILTYAFLGTAISCIVIGLIMYGFVKAMVYAGQLKNGDFHFTDCLFFGSLMSATDPVTVLAIFHELHVDPDLYTLLFGESVLNDAVAIVLTYSISIYSPKENPNAFDAAAFFQSVGNFLGIFAGSFAMGSAYAVVTALLTKFTKLCEFPMLETGLFFLLSWSAFLSAEAAGLTGIVAVLFCGVTQAHYTYNNLSLDSKMRTKQLFEFMNFLAENVIFCYMGLALFTFQNHIFNALFILGAFLAIFVARACNIYPLSFLLNLGRKHKIPWNFQHMMMFSGLRGAIAFALAIRDTESQPKQMMFSTTLLLVFFTVWVFGGGTT
notes: horse (Equus caballus) NHE9 (SLC9A9), residues 8-481 out of 644, lacking the entire C-terminal regulatory domain; C-terminal residues left after TEV cleavage are probably as in NHE9* (surmise); also called ΔCTD construct; source: S. cerevisiae FGY217, purified (Strep-Tactin XT, TEV digestion, SEC); not shown: GFP, C-terminal, cleaved; TwinStrep, C-terminal, cleaved; His8, C-terminal, cleaved
binding result [4]: binds
